Laboratory results reported in US4663327A, “1-heteroaryl-4-aryl-pyrazolin-5-ones” (priority 1984, dated 1987).
In brackets after ≈: the same amount, converted by molar mass.

test system: Pyricularia oryzae; assay: not given; format: in vivo; details: rice, sprayed, disease infestation 4 days after inoculation

| Structure (SMILES) | protective activity |
| --- | --- |
| O=c1c(-c2cc(C(F)(F)F)cc(C(F)(F)F)c2)c[nH]n1-c1ncccn1 [Example 104] | clearly superior activity compared with the prior art |
| Cc1cc(-n2[nH]cc(-c3ccc(C(F)(F)F)cc3)c2=O)nc(C)n1 [Example 122] | clearly superior activity compared with the prior art |

test system: Leptosphaeria nodorum; assay: Leptosphaeria nodorum test (wheat)/protective; format: in vivo; details: sprayed, evaluation 10 days after inoculation
Description: Leptosphaeria nodorum test (wheat)/protective Solvent: 100 parts by weight of dimethylformamide Emulsifier: 0.25 parts by weight of alkylaryl polyglycol ether To produce a suitable preparation of active compound, 1 part by weight of active compound is mixed with the stated amounts of solvent and emulsifier, and the concentrate is diluted with water to the desired concentration. To test for protective activity, young plants are sprayed with the preparation of active compound until dew-moist. After the spray coating has dried on, the plants are sprayed with a conidia suspension of Leptosphaeria nodorum. The plants remain for 48 hours in an incubation cabinet at 20° C. and 100% relative atmospheric humidity. The plants are placed in a greenhouse at a temperature of about 15° C. and a relative atmospheric humidity of about 80%. Evaluation is effected 10 days after the inoculation.

| Structure (SMILES) | protective activity |
| --- | --- |
| O=c1c(-c2ccc(Cl)cc2)c[nH]n1-c1ccccn1 [Example 9] | clearly superior activity compared with the prior art |
| COc1ccc(-c2c[nH]n(-c3ccccn3)c2=O)cc1 [Example 15] | clearly superior activity compared with the prior art |
| O=c1c(-c2ccc(SC(F)(F)F)cc2)c[nH]n1-c1ccccn1 [Example 19] | clearly superior activity compared with the prior art |
| O=c1c(-c2cccc(C(F)(F)F)c2)c[nH]n1-c1ccccn1 [Example 24] | clearly superior activity compared with the prior art |
| O=c1c(-c2cc(C(F)(F)F)ccc2Cl)c[nH]n1-c1ccccn1 [Example 26] | clearly superior activity compared with the prior art |
| Cc1[nH]n(-c2ncccn2)c(=O)c1-c1ccccc1 [Example 106] | clearly superior activity compared with the prior art |

test system: Cochliobolus sativus; assay: Cochliobolus sativus test (barley)/protective; format: in vivo; details: sprayed, evaluation 7 days after inoculation
Description: Cochliobolus sativus test (barley)/protective Solvent: 100 parts by weight of dimethylformamide Emulsifier: 0.25 parts by weight of alkylaryl polyglycol ether To produce a suitable preparation of active compound, 1 part by weight of active compound is mixed with the stated amounts of solvent and emulsifier, and the concentrate is diluted with water to the desired concentration. To test for protective activity, young plants are sprayed with the preparation of active compound until dew-moist. After the spray coating has dried on, the plants are sprayed with a conidia suspension of Cochliobolus sativus. The plants remain in an incubation cabinet for 48 hours at 20° C. and 100% relative atmospheric humidity. The plants are placed in a greenhouse at a temperature of about 20° C. and a relative atmospheric humidity of about 80%. Evaluation is carried out 7 days after the inoculation.

| Structure (SMILES) | protective activity |
| --- | --- |
| O=c1c(-c2ccc(Cl)cc2)c[nH]n1-c1ccccn1 [Example 9] | clearly superior activity compared with the prior art |
| O=c1c(-c2cccc(C(F)(F)F)c2)c[nH]n1-c1ccccn1 [Example 24] | clearly superior activity compared with the prior art |
| O=c1c(-c2cc(C(F)(F)F)ccc2Cl)c[nH]n1-c1ccccn1 [Example 26] | clearly superior activity compared with the prior art |

test system: Alternaria tenuis; assay: MIC on fungi in agar; details: Alternaria alternata, 336 h
Description: (§1) After storage for 2 weeks at 28° C. and 60 to 70% relative atmospheric humidity, the MIC is determined.

| Structure (SMILES) | MIC [µg/mL] |
| --- | --- |
| COc1ccc(-c2c[nH]n(-c3ccccn3)c2=O)cc1 [Example 15] | 50 (≈ 187 µM) |
| O=c1c(-c2ccccc2)c[nH]n1-c1ncccn1 [Example 81, 1-pyrimid-2-yl-4-phenyl-pyrazolin-5-one] | 75 (≈ 315 µM) |
| O=c1c(-c2ccc(Cl)cc2)c[nH]n1-c1ncccn1 [Example 85, 1-pyrimid-2-yl-4-(4-chlorophenyl)-pyrazolin-5-one] | 50 (≈ 183 µM) |
| O=c1c(-c2ccccc2Br)c[nH]n1-c1ncccn1 [Example 86] | 20 (≈ 63.1 µM) |
| COc1ccccc1-c1c[nH]n(-c2ncccn2)c1=O [Example 90] | 75 (≈ 280 µM) |
| COc1ccc(-c2c[nH]n(-c3ncccn3)c2=O)cc1 [Example 91] | 100 (≈ 373 µM) |

test system: Aspergillus niger; assay: MIC on fungi in agar; details: 336 h
Description: as §1

| Structure (SMILES) | MIC [µg/mL] |
| --- | --- |
| COc1ccc(-c2c[nH]n(-c3ccccn3)c2=O)cc1 [Example 15] | 20 (≈ 74.8 µM) |
| O=c1c(-c2ccccc2)c[nH]n1-c1ncccn1 [Example 81, 1-pyrimid-2-yl-4-phenyl-pyrazolin-5-one] | 10 (≈ 42 µM) |
| O=c1c(-c2ccc(Cl)cc2)c[nH]n1-c1ncccn1 [Example 85, 1-pyrimid-2-yl-4-(4-chlorophenyl)-pyrazolin-5-one] | 5 (≈ 18.3 µM) |
| O=c1c(-c2ccccc2Br)c[nH]n1-c1ncccn1 [Example 86] | 10 (≈ 31.5 µM) |
| COc1ccccc1-c1c[nH]n(-c2ncccn2)c1=O [Example 90] | 35 (≈ 130 µM) |
| COc1ccc(-c2c[nH]n(-c3ncccn3)c2=O)cc1 [Example 91] | 50 (≈ 186 µM) |

test system: Aureobasidium pullulans; assay: MIC on fungi in agar; details: 336 h
Description: as §1

| Structure (SMILES) | MIC [µg/mL] |
| --- | --- |
| COc1ccc(-c2c[nH]n(-c3ccccn3)c2=O)cc1 [Example 15] | 50 (≈ 187 µM) |
| O=c1c(-c2ccccc2)c[nH]n1-c1ncccn1 [Example 81, 1-pyrimid-2-yl-4-phenyl-pyrazolin-5-one] | 50 (≈ 210 µM) |
| O=c1c(-c2ccc(Cl)cc2)c[nH]n1-c1ncccn1 [Example 85, 1-pyrimid-2-yl-4-(4-chlorophenyl)-pyrazolin-5-one] | 50 (≈ 183 µM) |
| O=c1c(-c2ccccc2Br)c[nH]n1-c1ncccn1 [Example 86] | 20 (≈ 63.1 µM) |
| COc1ccccc1-c1c[nH]n(-c2ncccn2)c1=O [Example 90] | 75 (≈ 280 µM) |
| COc1ccc(-c2c[nH]n(-c3ncccn3)c2=O)cc1 [Example 91] | 150 (≈ 559 µM) |

test system: Chaetomium globosum; assay: MIC on fungi in agar; details: 336 h
Description: as §1

| Structure (SMILES) | MIC [µg/mL] |
| --- | --- |
| COc1ccc(-c2c[nH]n(-c3ccccn3)c2=O)cc1 [Example 15] | 0.5 (≈ 1.87 µM) |
| O=c1c(-c2ccccc2)c[nH]n1-c1ncccn1 [Example 81, 1-pyrimid-2-yl-4-phenyl-pyrazolin-5-one] | 3.5 (≈ 14.7 µM) |
| O=c1c(-c2ccc(Cl)cc2)c[nH]n1-c1ncccn1 [Example 85, 1-pyrimid-2-yl-4-(4-chlorophenyl)-pyrazolin-5-one] | 1 (≈ 3.67 µM) |
| O=c1c(-c2ccccc2Br)c[nH]n1-c1ncccn1 [Example 86] | 1 (≈ 3.15 µM) |
| COc1ccccc1-c1c[nH]n(-c2ncccn2)c1=O [Example 90] | 15 (≈ 55.9 µM) |
| COc1ccc(-c2c[nH]n(-c3ncccn3)c2=O)cc1 [Example 91] | 20 (≈ 74.6 µM) |

test system: Coniophora puteana; assay: MIC on fungi in agar; details: 336 h
Description: as §1

| Structure (SMILES) | MIC [µg/mL] |
| --- | --- |
| COc1ccc(-c2c[nH]n(-c3ccccn3)c2=O)cc1 [Example 15] | 5 (≈ 18.7 µM) |
| O=c1c(-c2ccccc2)c[nH]n1-c1ncccn1 [Example 81, 1-pyrimid-2-yl-4-phenyl-pyrazolin-5-one] | 0.5 (≈ 2.1 µM) |
| O=c1c(-c2ccc(Cl)cc2)c[nH]n1-c1ncccn1 [Example 85, 1-pyrimid-2-yl-4-(4-chlorophenyl)-pyrazolin-5-one] | 3.5 (≈ 12.8 µM) |
| O=c1c(-c2ccccc2Br)c[nH]n1-c1ncccn1 [Example 86] | 5 (≈ 15.8 µM) |
| COc1ccccc1-c1c[nH]n(-c2ncccn2)c1=O [Example 90] | 5 (≈ 18.6 µM) |
| COc1ccc(-c2c[nH]n(-c3ncccn3)c2=O)cc1 [Example 91] | 5 (≈ 18.6 µM) |

test system: Lentinus tigrinus; assay: MIC on fungi in agar; details: 336 h
Description: as §1

| Structure (SMILES) | MIC [µg/mL] |
| --- | --- |
| COc1ccc(-c2c[nH]n(-c3ccccn3)c2=O)cc1 [Example 15] | 50 (≈ 187 µM) |
| O=c1c(-c2ccccc2)c[nH]n1-c1ncccn1 [Example 81, 1-pyrimid-2-yl-4-phenyl-pyrazolin-5-one] | 5 (≈ 21 µM) |
| O=c1c(-c2ccc(Cl)cc2)c[nH]n1-c1ncccn1 [Example 85, 1-pyrimid-2-yl-4-(4-chlorophenyl)-pyrazolin-5-one] | 7.5 (≈ 27.5 µM) |
| O=c1c(-c2ccccc2Br)c[nH]n1-c1ncccn1 [Example 86] | 2 (≈ 6.31 µM) |
| COc1ccccc1-c1c[nH]n(-c2ncccn2)c1=O [Example 90] | 100 (≈ 373 µM) |
| COc1ccc(-c2c[nH]n(-c3ncccn3)c2=O)cc1 [Example 91] | 100 (≈ 373 µM) |

test system: Penicillium glaucum; assay: MIC on fungi in agar; details: 336 h
Description: as §1

| Structure (SMILES) | MIC [µg/mL] |
| --- | --- |
| COc1ccc(-c2c[nH]n(-c3ccccn3)c2=O)cc1 [Example 15] | 75 (≈ 281 µM) |
| O=c1c(-c2ccccc2)c[nH]n1-c1ncccn1 [Example 81, 1-pyrimid-2-yl-4-phenyl-pyrazolin-5-one] | 50 (≈ 210 µM) |
| O=c1c(-c2ccc(Cl)cc2)c[nH]n1-c1ncccn1 [Example 85, 1-pyrimid-2-yl-4-(4-chlorophenyl)-pyrazolin-5-one] | 10 (≈ 36.7 µM) |
| O=c1c(-c2ccccc2Br)c[nH]n1-c1ncccn1 [Example 86] | 50 (≈ 158 µM) |
| COc1ccccc1-c1c[nH]n(-c2ncccn2)c1=O [Example 90] | 35 (≈ 130 µM) |
| COc1ccc(-c2c[nH]n(-c3ncccn3)c2=O)cc1 [Example 91] | 10 (≈ 37.3 µM) |

test system: Polyporus versicolor; assay: MIC on fungi in agar; details: Trametes versicolor, 336 h
Description: as §1

| Structure (SMILES) | MIC [µg/mL] |
| --- | --- |
| COc1ccc(-c2c[nH]n(-c3ccccn3)c2=O)cc1 [Example 15] | 20 (≈ 74.8 µM) |
| O=c1c(-c2ccccc2)c[nH]n1-c1ncccn1 [Example 81, 1-pyrimid-2-yl-4-phenyl-pyrazolin-5-one] | 2 (≈ 8.39 µM) |
| O=c1c(-c2ccc(Cl)cc2)c[nH]n1-c1ncccn1 [Example 85, 1-pyrimid-2-yl-4-(4-chlorophenyl)-pyrazolin-5-one] | 5 (≈ 18.3 µM) |
| O=c1c(-c2ccccc2Br)c[nH]n1-c1ncccn1 [Example 86] | 2 (≈ 6.31 µM) |
| COc1ccccc1-c1c[nH]n(-c2ncccn2)c1=O [Example 90] | 10 (≈ 37.3 µM) |
| COc1ccc(-c2c[nH]n(-c3ncccn3)c2=O)cc1 [Example 91] | 20 (≈ 74.6 µM) |

test system: Sclerophoma pityophila; assay: MIC on fungi in agar; details: Sydowia polyspora, 336 h
Description: as §1

| Structure (SMILES) | MIC [µg/mL] |
| --- | --- |
| COc1ccc(-c2c[nH]n(-c3ccccn3)c2=O)cc1 [Example 15] | 50 (≈ 187 µM) |
| O=c1c(-c2ccccc2)c[nH]n1-c1ncccn1 [Example 81, 1-pyrimid-2-yl-4-phenyl-pyrazolin-5-one] | 7.5 (≈ 31.5 µM) |
| O=c1c(-c2ccc(Cl)cc2)c[nH]n1-c1ncccn1 [Example 85, 1-pyrimid-2-yl-4-(4-chlorophenyl)-pyrazolin-5-one] | 20 (≈ 73.3 µM) |
| O=c1c(-c2ccccc2Br)c[nH]n1-c1ncccn1 [Example 86] | 10 (≈ 31.5 µM) |
| COc1ccccc1-c1c[nH]n(-c2ncccn2)c1=O [Example 90] | 15 (≈ 55.9 µM) |
| COc1ccc(-c2c[nH]n(-c3ncccn3)c2=O)cc1 [Example 91] | 15 (≈ 55.9 µM) |

test system: Trichoderma viride; assay: MIC on fungi in agar; details: 336 h
Description: as §1

| Structure (SMILES) | MIC [µg/mL] |
| --- | --- |
| COc1ccc(-c2c[nH]n(-c3ccccn3)c2=O)cc1 [Example 15] | 1000 (≈ 3740 µM) |
| O=c1c(-c2ccccc2)c[nH]n1-c1ncccn1 [Example 81, 1-pyrimid-2-yl-4-phenyl-pyrazolin-5-one] | 75 (≈ 315 µM) |
| O=c1c(-c2ccc(Cl)cc2)c[nH]n1-c1ncccn1 [Example 85, 1-pyrimid-2-yl-4-(4-chlorophenyl)-pyrazolin-5-one] | 100 (≈ 367 µM) |
| O=c1c(-c2ccccc2Br)c[nH]n1-c1ncccn1 [Example 86] | 35 (≈ 110 µM) |
| COc1ccccc1-c1c[nH]n(-c2ncccn2)c1=O [Example 90] | 150 (≈ 559 µM) |
| COc1ccc(-c2c[nH]n(-c3ncccn3)c2=O)cc1 [Example 91] | 200 (≈ 746 µM) |
